Experimental data from ChEMBL document CHEMBL1157596, “Colony stimulating factor-1 receptor as a target for small molecule inhibitors” (Bioorg Med Chem, 2010).
Each block holds one compound with its values, some of them ahead of it.

Assays:
Type in all cases: cell-based
Set-up in all cases: scale not given: the % may be the effect or the level left
[1] = molecular target: Macrophage colony-stimulating factor 1 receptor (Homo sapiens) (UniProt P07333); experiment: Inhibition of CSF1-stimulated human FMS autophosphorylation expressed in growth factor dependent mouse FDC-P1 cells assessed as phosphorylated receptor level at 10 uM relative to control by Western blot
Macrophage colony-stimulating factor 1 receptor (Homo sapiens), sequence (P07333 whole entry): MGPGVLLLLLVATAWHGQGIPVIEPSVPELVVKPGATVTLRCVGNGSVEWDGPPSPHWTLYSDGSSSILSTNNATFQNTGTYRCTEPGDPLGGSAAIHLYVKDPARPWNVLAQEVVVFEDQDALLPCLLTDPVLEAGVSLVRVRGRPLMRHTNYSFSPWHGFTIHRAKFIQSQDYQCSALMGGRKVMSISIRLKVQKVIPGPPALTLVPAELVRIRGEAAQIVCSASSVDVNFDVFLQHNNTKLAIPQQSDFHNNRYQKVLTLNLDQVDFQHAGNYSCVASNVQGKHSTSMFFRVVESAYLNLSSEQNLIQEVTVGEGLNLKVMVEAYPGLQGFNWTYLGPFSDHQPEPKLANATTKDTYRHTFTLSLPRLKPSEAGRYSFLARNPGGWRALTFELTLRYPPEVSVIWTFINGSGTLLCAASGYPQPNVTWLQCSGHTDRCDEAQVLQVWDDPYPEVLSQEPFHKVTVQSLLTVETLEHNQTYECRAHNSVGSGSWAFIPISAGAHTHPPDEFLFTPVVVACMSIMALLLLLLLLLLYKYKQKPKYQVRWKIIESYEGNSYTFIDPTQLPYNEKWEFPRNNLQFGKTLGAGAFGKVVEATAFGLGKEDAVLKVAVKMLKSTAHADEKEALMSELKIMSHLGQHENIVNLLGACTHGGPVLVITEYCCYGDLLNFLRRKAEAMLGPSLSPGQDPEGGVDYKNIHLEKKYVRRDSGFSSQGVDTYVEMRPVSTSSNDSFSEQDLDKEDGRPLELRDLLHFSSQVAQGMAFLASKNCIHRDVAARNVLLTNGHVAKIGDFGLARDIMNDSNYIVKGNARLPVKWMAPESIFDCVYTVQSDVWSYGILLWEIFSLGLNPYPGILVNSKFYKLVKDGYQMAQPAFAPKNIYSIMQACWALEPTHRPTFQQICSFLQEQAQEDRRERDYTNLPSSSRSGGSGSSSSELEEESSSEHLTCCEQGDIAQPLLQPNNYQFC

[2] = molecular target: Macrophage colony-stimulating factor 1 receptor (Homo sapiens) (UniProt P07333); experiment: Inhibition of CSF1-stimulated human FMS autophosphorylation expressed in growth factor dependent mouse FDC-P1 cells assessed as phosphorylated receptor level at 3.3 uM relative to control by Western blot
[3] = molecular target: Macrophage colony-stimulating factor 1 receptor (Homo sapiens) (UniProt P07333); experiment: Inhibition of CSF1-stimulated human FMS autophosphorylation expressed in growth factor dependent mouse FDC-P1 cells assessed as phosphorylated receptor level at 0.11 uM relative to control by Western blot
[4] = molecular target: Macrophage colony-stimulating factor 1 receptor (Homo sapiens) (UniProt P07333); experiment: Inhibition of CSF1-stimulated human FMS autophosphorylation expressed in growth factor dependent mouse FDC-P1 cells assessed as phosphorylated receptor level at 0.33 uM relative to control by Western blot
[5] = molecular target: Macrophage colony-stimulating factor 1 receptor (Homo sapiens) (UniProt P07333); experiment: Inhibition of CSF1-stimulated human FMS autophosphorylation expressed in growth factor dependent mouse FDC-P1 cells assessed as phosphorylated receptor level at 1.1 uM relative to control by Western blot
[6] = molecular target: Macrophage colony-stimulating factor 1 receptor (Homo sapiens) (UniProt P07333); experiment: Inhibition of CSF1-stimulated human FMS autophosphorylation expressed in growth factor dependent mouse FDC-P1 cells assessed as phosphorylated receptor level at 5 nM relative to control by Western blot
[7] = molecular target: Macrophage colony-stimulating factor 1 receptor (Homo sapiens) (UniProt P07333); experiment: Inhibition of CSF1-stimulated human FMS autophosphorylation expressed in growth factor dependent mouse FDC-P1 cells assessed as phosphorylated receptor level at 500 nM relative to control by Western blot
[8] = molecular target: Macrophage colony-stimulating factor 1 receptor (Homo sapiens) (UniProt P07333); experiment: Inhibition of CSF1-stimulated human FMS autophosphorylation expressed in growth factor dependent mouse FDC-P1 cells assessed as phosphorylated receptor level at 50 nM relative to control by Western blot
[9] = molecular target: Macrophage colony-stimulating factor 1 receptor (Homo sapiens) (UniProt P07333); experiment: Inhibition of CSF1-stimulated human FMS autophosphorylation expressed in growth factor dependent mouse FDC-P1 cells assessed as phosphorylated receptor level at 1 nM relative to control by Western blot
[10] = molecular target: Macrophage colony-stimulating factor 1 receptor (Homo sapiens) (UniProt P07333); experiment: Inhibition of CSF1-stimulated human FMS autophosphorylation expressed in growth factor dependent mouse FDC-P1 cells assessed as phosphorylated receptor level at 31 nM relative to control by Western blot

- Activity [1]: 106%
- Activity [2]: 97%
- Activity [3]: 104%
- Activity [4]: 109%
- Activity [5]: 104%
Compound: CN(C)S(=O)(=O)c1ccc2c(c1)/C(=C/c1cc3c([nH]1)CCCC3)C(=O)N2

- Activity [6]: 110%
- Activity [7]: 3%
- Activity [8]: 21%
Compound: CO[C@@H]1[C@H](N(C)C(=O)c2ccccc2)C[C@H]2O[C@]1(C)n1c3ccccc3c3c4c(c5c6ccccc6n2c5c31)C(=O)NC4

Compound: C[C@]12O[C@H](C[C@]1(O)CO)n1c3ccccc3c3c4c(c5c6ccccc6n2c5c31)CNC4=O
- Activity [9]: 85%

- Activity [9]: 90%
- Activity [7]: 2%
- Activity [10]: 37%
Compound: CCN(CC)CCNC(=O)c1c(C)[nH]c(/C=C2\C(=O)Nc3ccc(F)cc32)c1C
